# From publication PMC2668075 (PLoS ONE, 2009)
# Peptide text beside a SMILES is read from it. * marks the point of attachment. AMC = Cc1cc(=O)oc2cc(N*)ccc12
# Target: T1, HcDppIVA (Histoplasma ohiense, UniProt A0ACF1AGW9)
# T1 construct: gene DPP4
# Conditions: pH and temperature series (optimum pH 8, 42 °C); 1 h
smiles,measurement,value
Cc1cc(=O)oc2cc(NC(=O)[C@@H]3CCCN3C(=O)CN)ccc12 [Gly-pro-AMC] (H-Gly-Pro-{AMC}),fluorescent AMC release assay,We measured DppIV activity of the purified preparation towards Gly-pro-AMC
